Assay results from patent publication US7435732B2, “Crystalline polymorphs of (3S)-N-hydroxy-4-({4-[-(4-hydroxy-2-butynyl)oxy]phenyl}sulfonyl)-2,2-dimethyl-3-thiomorpholine carboxamide” (Wyeth, priority 2004, dated 2008).
Like-named read-outs stand apart in the source and are kept apart here.

Assays:
[1] = Solid form conversion under humidity / ambient conditions; assay type: physicochemical
Method: Polymorph form B is likely also an anhydrous form of apratastat. […] Form B disappears upon mild heating (e.g., at or above about 35° C.) under ambient humidity levels.

[2] = Solid form after open pan DSC heating, by powder XRD; assay type: physicochemical
Method: X-ray diffraction data (e.g., FIGS. 1, 4, 6 and 8) were collected using a Philips X'Pert PW-3040-MPD X-ray diffractometer (Philips, Bothell, Wash.) set at 40 kV and 40 mA. Data was collected as a continuous scan at 0.02°/sec. between […].
DSC data (e.g., FIG. 10) were collected using a TA Instruments DSC 2920 Differential Scanning Calorimeter (TA Instruments, New Castle, Del.). Measurements were carried out in both closed pan and open pan modes on about 5-35 mg samples. The heating profile was from 25° C. to 170° C. at 5° C./min, or 25° C. to 120° C. at 5° C./min with a ten minute holding time at 120° C., or 25° C. to 135° C. at 5° C./min with a five minute holding time at 135° C., or 25° C. to 150° C. at 5° C./min with a one minute holding time at 150° C.
A micronized sample of apratastat polymorph form A was subjected to three separate DSC experiments performed in the open pan mode as described in Example 5 above using the 120° C., 135° C., and 150° C. heating profiles. Each sample was cooled to ambient temperature and then recovered for powder X-ray diffraction (XRD) analysis as described in Example 2.
A milled sample of apratastat polymorph form A was subjected to similar DSC conditions.

[3] = target: T1, TNF-α converting enzyme (TACE) (Homo sapiens, UniProt P78536); test: TACE inhibition in vitro; assay type: biochemical
[4] = system: human synovium tissue explants from patients suffering from rheumatoid arthritis; test: TNF-α secretion by human synovium tissue explants; assay type: cell-based
[5] = system: TNF-α; test: murine lipopolysaccharide (LPS) model; assay type: in vivo
[6] = system: TNF-α; test: primate lipopolysaccharide (LPS) model; assay type: in vivo
[7] = target: T1, TNF-α converting enzyme (TACE); conditions: as described in U.S. Pat. No. 6,225,311; cited from earlier work
[8] = system: matrix metalloproteinase (MMP); conditions: cited from earlier work

T1 sequence (P78536 215-824, species assumed): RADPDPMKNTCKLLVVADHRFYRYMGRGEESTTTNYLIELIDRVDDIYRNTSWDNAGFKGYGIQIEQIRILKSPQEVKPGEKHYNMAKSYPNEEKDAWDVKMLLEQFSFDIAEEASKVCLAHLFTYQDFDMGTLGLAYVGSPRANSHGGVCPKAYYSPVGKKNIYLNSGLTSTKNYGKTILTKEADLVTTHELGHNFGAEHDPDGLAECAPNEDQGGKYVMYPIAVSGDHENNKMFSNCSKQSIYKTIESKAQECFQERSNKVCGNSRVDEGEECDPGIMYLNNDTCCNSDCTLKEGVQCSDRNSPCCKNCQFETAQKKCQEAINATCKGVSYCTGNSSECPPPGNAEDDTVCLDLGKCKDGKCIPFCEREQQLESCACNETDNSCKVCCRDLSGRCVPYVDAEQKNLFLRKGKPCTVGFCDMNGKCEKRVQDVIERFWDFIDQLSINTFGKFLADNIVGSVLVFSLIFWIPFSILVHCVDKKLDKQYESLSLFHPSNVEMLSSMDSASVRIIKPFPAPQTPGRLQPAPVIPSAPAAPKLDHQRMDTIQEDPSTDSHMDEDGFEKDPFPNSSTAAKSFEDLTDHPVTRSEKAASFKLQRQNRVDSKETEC

## CC1(C)SCCN(S(=O)(=O)c2ccc(OCC#CCO)cc2)[C@H]1C(=O)NO [Form B, (3S)-N-hydroxy-4-({4-[(4-hydroxy-2-butynyl)oxy]phenyl}sulfonyl)-2,2-dimethyl-3-thiomorpholinecarboxamide]
[1]; ambient conditions, little or no energy input
  solid form stability under ambient conditions: can convert back to form A
[1]; at or above about 35° C., ambient humidity levels
  solid form stability upon mild heating: disappears

## CC1(C)SCCN(S(=O)(=O)c2ccc(OCC#CCO)cc2)[C@H]1C(=O)NO [apratastat polymorph form A, (3S)-N-hydroxy-4-({4-[(4-hydroxy-2-butynyl)oxy]phenyl}sulfonyl)-2,2-dimethyl-3-thiomorpholinecarboxamide]
[2]; micronized sample, 120° C. heating profile, open pan
  XRD form after heating: Form C
[2]; micronized sample, 135° C. heating profile, open pan
  XRD form after heating: Form C
[2]; micronized sample, 150° C. heating profile, open pan
  XRD form after heating: Amorphous
[2]; milled sample, 120° C. heating profile
  XRD form after heating: Form C + D
[2]; milled sample, 135° C. heating profile
  XRD form after heating: Form C + D
[2]; milled sample, 150° C. heating profile
  XRD form after heating: Form D
[1]; about 4-5% relative humidity, at or near room temperature
  solid form stability in low-moisture environment: a portion or all of the polymorph may convert to a new form (form B)

## CC1(C)SCCN(S(=O)(=O)c2ccc(OCC#CCO)cc2)[C@H]1C(=O)NO [apratastat, (3S)-N-hydroxy-4-({4-[(4-hydroxy-2-butynyl)oxy]phenyl}sulfonyl)-2,2-dimethyl-3-thiomorpholinecarboxamide]
[3]
  inhibition of TACE: potent, reversible, and competitive inhibitor
[4]
  inhibition of TNF-α secretion: inhibits TNF-α secretion
[5]
  TNF-α inhibition: potent TNF-α inhibitor
[6]
  TNF-α inhibition: potent TNF-α inhibitor
[7]
  inhibition of TACE: inhibitor
[8]
  inhibition of MMP enzymes: inhibitor
